Source: patent US5928931A, “Isolation, purification and cloning of retinol dehydratase” (Cornell Research Foundation, Inc., priority 1997, dated 1999)
“Also recorded” adds a separate entry of the source. Read-outs that look alike come from different tables or passages of the source.

Assays:
NIH 3T3 cells = test: Activation of resting serum-starved NIH 3T3 cells ([3H]thymidine incorporation); type: cell-based; details: for time from the start of activation to entry of the S phase: 5% fetal calf serum; for activation of growth arrested cells (thymidine incorporation over 24 hours): cells deprived of serum for 3 or 4 days; for concentrations that activate resting 3T3 cells (dose-response): four day serum-starved cells, FIG. 6B; for entry of treated cells into the S phase: data not shown
Description: FIGS. 6A and 6B show the activation of resting NIH 3T3 cells. In FIG. 6(a), one to four day serum-starved cells activated by serum, retinol, 14-HRR, and the peptide growth factors epidermal growth factor ("EGF") and platelet derived growth factor ("PDGF") are shown. […] NIH 3T3 cells were grown to confluence in Dulbecco's minimal essential medium ("DMEM") containing 10% fetal calf serum in 96-well microliter plates. All media were supplemented with 2 mM glutamine and 100 U/ml of penicillin/streptomycin. Cells were washed once with phosphate-buffered saline solution and incubated for one to four days in 200 μl/well of DMEM media/0.1% fetal calf serum ("starvation media"). On the indicated day, starvation media was replaced with 200 μl/well of insulin, transferrin, linoleic acid, bovine serum albumin ("ITLB") media, with or without fetal calf serum, retinoids, or peptide growth factors at the indicated concentrations. ITLB media is RPMI media (Gibco BRL, Grand Island, N.Y.) containing […] bovine serum albumin (1.2 mg/ml), linoleic acid (10^-6 M), bovine insulin (5 μg/ml), and transferrin (5 μg/ml). [^3 H]thymidine (1.2 μCi per well) was added at the beginning of the experiment, and the thymidine incorporation was determined after 24 h. The data represent the mean of triplicate measurements and standard deviations ("SD") were ≤17%. Recombinant PDGF (B/B) and EGF were purchased from Sigma Chemical Company or Boehringer Mannheim Corporation. Anhydroretinol was synthesized by acid catalyzed dehydration of all-trans-retinol. Embree, J. Biol. Chem. 128:187-98 (1939) and Derguini, et al., Angew. Chem. Int. Ed. Engl. 33:1839-41 (1994), which are hereby incorporated by reference. All-trans-14-hydroxy-4,14-retro-retinol was synthesized as described. Derguini, et al., J. Biochem. 33:623-28 (1994), which is hereby incorporated by reference.
Cells starved for 4 days in DMEM/0.1% fetal calf serum were activated with 5% fetal calf serum, 2 μM retinol, or 2 μM 14-HRR, and the cumulative thymidine incorporation was determined at the indicated time points. Δcpm corresponds to the increase in [^3 H]thymidine incorporation in the two hour period before the time point shown. This method is described in FIG. 6. The data in FIG. 7 represents the mean of quadruplicate measurements and SDs were ≤15%.
Cells starved for 4 days in DMEM/0.1% fetal calf serum were activated in 100 μl/well ITLB medium. At the indicated time points, anhydroretinol was added in 100 μl ITLB medium. This method is described in FIG. 6. The data in FIG. 8 represents the mean of quadruplicate measurements and SDs were ≤20%.
Cells starved for 4 days in DMEM/0.1% fetal calf serum were activated with 5% fetal calf serum, 2 μM retinol, or 2 μM 14-HRR. At the time points, 10^-5 M anhydroretinol was added. The cumulative [^3 H]thymidine incorporation was determined after 24 hours. […] The method is described in FIG. 6. The data in FIG. 9 represents the mean of triplicate measurements and SDs were ≤20%.
Confluent NIH 3T3 cells were starved for 1 to 4 days in medium containing 0.1% serum. Then, these starved cells were treated with serum, PDGF, EGF, retinol, or 14-HRR. Activation was quantitated by measuring the [^3 H] thymidine incorporated into newly synthesized DNA during the subsequent 24 hours (FIG. 6A). After a single day of serum starvation, the cells were not yet arrested, and the control cells incorporated the same amount of thymidine as the treated cells. After 2 days of serum deprivation, untreated cells incorporated slightly less thymidine, while cells treated with serum, peptide growth factors and retinoids maintained the original level of thymidine incorporation. In contrast, cells deprived of serum for 3 or 4 days were fully growth arrested; untreated cells incorporated little or no thymidine. […] All subsequent activation experiments were conducted using 4 day starved NIH 3T3 cells.

retinol dehydratase [1] = target: T1, retinol dehydratase (Spodoptera frugiperda, UniProt Q26490); test: Retinol dehydratase assay ([3H]-retinol to [3H]-AR, HPLC radiomatic detection); kinetic studies; type: biochemical
T1 sequence (Q26490 1-351): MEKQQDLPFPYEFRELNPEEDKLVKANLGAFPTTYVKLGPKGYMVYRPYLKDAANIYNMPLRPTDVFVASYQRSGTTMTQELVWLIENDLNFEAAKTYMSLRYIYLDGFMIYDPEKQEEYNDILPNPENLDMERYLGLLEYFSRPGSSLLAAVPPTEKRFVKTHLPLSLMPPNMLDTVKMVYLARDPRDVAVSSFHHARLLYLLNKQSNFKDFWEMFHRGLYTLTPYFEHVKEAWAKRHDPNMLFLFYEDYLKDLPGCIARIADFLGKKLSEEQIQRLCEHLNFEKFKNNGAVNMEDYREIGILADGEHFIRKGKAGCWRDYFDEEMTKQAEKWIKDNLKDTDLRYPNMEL
Description: 20-50 μl aliquots of supernatant/column fractions were incubated with 1 μCi of [^3 H]-retinol and 20 μl of high speed supernatant from sonicated Sf-9 cells in 200 μl assay buffer (20 mM Tris.Cl pH 7.5, 150 mM NaCl, I mM MgCI2) for 15-60 minutes at 24° C. […] Samples were delipidated and [^3 H]-AR production quantified by a liquid scintillation radiomatic detector in series with HPLC gradient elution (20 mM Tris pH 7.4/methanol/chloroform) from a C-18 Reverse Phase 201TP54 column (Vydac, Separations Group, Hesperia, Calif.) as described by McClean et al., Clin. Chem., 28:693-96 (1982) and Derguini et al., Angew. Che. Int. Ed. Engl., 33:1839-41 (1994), which are hereby incorporated by reference.
Kinetic studies were performed with native retinol dehydratase (0.1 μg/assay) and ^3 H-retinol in the presence of constant substrate carrier protein concentrations, either delipidated BSA or recombinant cellular retinol binding protein ("CRBP"). The initial rate of AR synthesis at different substrate concentrations was determined by radiomatic detection of ^3 H-AR after HPLC separation.
Carrier protein for retinol (delipidated bovine serum albumin or recombinant human CRBP) was added to reduce nonspecific binding and micelle formation.

resting T lymphocytes = details: Buck et al. 1993; cited from earlier work
[2] = tested on: lymphocyte and HL-60 cell; details: Eppinger et al. 1993, Buck et al. 1993; cited from earlier work
B lymphocyte = details: Buck et al. 1993; cited from earlier work
Sf-21 cells = type: cell-based, Spodoptera frugiperda
Description: 10^7 Spodoplera frugiperda Sf-21 cells or Sf-9 cells were incubated with 1 μCi^3 H-retinol in Grace's insect cell media for 6 hours. Delipidated and radiolabelled retinoid metabolites were analyzed by radiomatic detection after separation by HPLC.
Che. Int. Ed. Engl., 33:1839-41 (1994), which is hereby incorporated by reference.

BSA = BSA (Bos taurus, UniProt P02769); details: published value; read-out: BSA Kd for retinol; cited from earlier work
BSA, sequence (P02769 25-607): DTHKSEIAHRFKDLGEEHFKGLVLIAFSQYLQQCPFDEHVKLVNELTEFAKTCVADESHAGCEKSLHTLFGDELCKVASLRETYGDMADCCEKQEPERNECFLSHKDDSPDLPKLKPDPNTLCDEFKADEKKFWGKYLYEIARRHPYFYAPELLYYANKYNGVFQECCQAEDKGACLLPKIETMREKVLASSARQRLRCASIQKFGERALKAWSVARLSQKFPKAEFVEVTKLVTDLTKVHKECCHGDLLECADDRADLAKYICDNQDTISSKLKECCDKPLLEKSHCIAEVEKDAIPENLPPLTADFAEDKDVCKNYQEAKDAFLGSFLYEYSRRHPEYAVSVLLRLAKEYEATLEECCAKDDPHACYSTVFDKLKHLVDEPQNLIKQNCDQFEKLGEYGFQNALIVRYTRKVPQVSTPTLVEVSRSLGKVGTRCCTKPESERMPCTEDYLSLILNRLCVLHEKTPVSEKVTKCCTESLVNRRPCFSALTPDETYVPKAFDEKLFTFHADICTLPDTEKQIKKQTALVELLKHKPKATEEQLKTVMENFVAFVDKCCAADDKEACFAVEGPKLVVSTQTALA

CRBP-1 = target: T2, CRBP-1 (Rattus norvegicus, UniProt P02696); details: published value; read-out: CRBP Kd for retinol; cited from earlier work
T2 sequence (P02696 1-135): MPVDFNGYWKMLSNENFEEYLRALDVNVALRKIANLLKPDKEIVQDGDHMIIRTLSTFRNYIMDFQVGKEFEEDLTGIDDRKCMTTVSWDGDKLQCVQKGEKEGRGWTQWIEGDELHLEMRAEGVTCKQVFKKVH

retinol dehydratase [3] = target: T1, retinol dehydratase; test: Fluorimetric titration of recombinant retinol dehydratase with retinol (direct binding, no cofactor)
Description: Binding was monitored by following the fluorescence enhancement of retinol (excitation--330 nm; emission--480 nm, open circles). The fluorescence contribution of free retinol was determined by titration with retinol in the absence of protein (open squares), analyzed by linear regression analysis (dashed line) and subtracted from the titration data to give the corrected titration binding curve (closed circles). The data were fitted (solid line) using an equation derived from simple binding theory.
Retinol is an efficient fluorophore and its interactions with proteins are often accompanied by a marked increase in its fluorescence. […]
Recombinant retinol dehydratase (lμM) was titrated with retinol from a concentrated solution in ethanol (final ethanol concentration <2.0%). Binding was monitored by following the fluorescence enhancement of retinol (excitation--330 nm; emission--480 nm, open circles). The fluorescence contribution of free retinol was determined by titration with retinol in the absence of protein (FIG. 5B, open squares), analysed by linear regression analysis (FIG. 5B, dashed line) and subtracted from the titration data to give the corrected titration binding curve (FIG. 5B, closed circles). […]

[4] = 4 day starved cells, 2 μM retinol or 2 μM 14-HRR

With CC1=CCCC(C)(C)C1=C/C=C(C)/C=C/C=C(\C)C(O)CO (stereo not shown) [14-HRR, 14-hydroxy-4,14-retro-retinol] the “time from the start of activation to entry of the S phase” value (NIH 3T3 cells; [4]) was 16 h, the “activation of growth arrested cells (thymidine incorporation over 24 hours)” value (NIH 3T3 cells) was “activated the cells at least as well as serum” and the “concentrations that activate resting 3T3 cells (dose-response)” value (NIH 3T3 cells) was “submicromolar”.

With Nc1ncnc2c1ncn2[C@@H]1O[C@H](COP(=O)(O)OS(=O)(=O)O)[C@@H](OP(=O)(O)O)[C@H]1O [PAPS, 3'-phosphoadenosine 5'-phosphosulfate] the “restoration of retinol dehydratase activity (cofactor)” value (retinol dehydratase [1]; purified recombinant retinol dehydratase, [3H]-retinol assay) was “necessary and sufficient to restore activity”.

For Nc1ncnc2c1ncn2[C@@H]1O[C@H](COP(=O)(O)OS(=O)(=O)O)[C@@H](O)[C@H]1O [adenosine 5'-phosphosulfate], the “activity as cofactor in the [3H]-retinol assay” value (retinol dehydratase [1]; purified recombinant retinol dehydratase, concentration range tested 1-10 μM) was “not active”.

For C=C/C(C)=C/C=C/C(C)=C/C=C1/C(C)=CCCC1(C)C [anhydroretinol], the “effect on activation of resting T lymphocytes” value (resting T lymphocytes) is given as “blocks”, the “effect on retinol and 14-HRR supported lymphocyte and HL-60 cell growth” value [2] is given as “competitively inhibits” and the “reaction rate (product inhibition)” value (retinol dehydratase [1]; ratio of 50:1 for anhydroretinol to retinol) is given as “halved”. The “inhibition of activation by retinol and 14-HRR” value (NIH 3T3 cells; 3T3 cells) was “competitively inhibits”, the “time after activation within which added anhydroretinol prevents activation” value (NIH 3T3 cells; 10^-5 M anhydroretinol, activation by 5% fetal calf serum, 2 μM retinol or 2 μM 14-HRR) was at most 90 min and the “inhibition of activation by serum” value (NIH 3T3 cells; 4 day starved cells, FIG. 8) was “blocks activation by serum in a dose-dependent manner; also recorded: competitively inhibits”. For the same compound, the “block of activation when added late” value (NIH 3T3 cells; anhydroretinol added after 2 hours) was “unable to block activation” and the “effect on B lymphocyte proliferation” value (B lymphocyte) was “blocks”.

In the case of O=CCCCC=O [glutaraldehyde], the “inhibition of cellular production of AR compared to controls” value (Sf-21 cells; 2% glutaraldehyde fixation) is reported as 90%.

For CCCCCCCCCCCCCC(=O)O[C@@H]1[C@@H](C)[C@@]2(O)[C@@H](C=C(CO)C[C@]3(O)C(=O)C(C)=C[C@@H]23)[C@@H]2C(C)(C)[C@]12OC(C)=O [phorbol ester], the “entry of treated cells into the S phase” value (NIH 3T3 cells) was “did not enter the S phase” and the “activation of resting cells” value (NIH 3T3 cells; ≤1 μM) was “unable to activate”.

For CC1=C(/C=C/C(C)=C/C=C/C(C)=C/C(=O)O)C(C)(C)CCC1 [retinoic acid], the “activation of resting cells” value (NIH 3T3 cells; ≤5 μM) was “unable to activate”.

For CC1=C(/C=C/C(C)=C/C=C/C(C)=C/CO)C(C)(C)CCC1 [retinol], the Kd (BSA) is listed as 1000 nM, the Kd (CRBP-1) is listed as 12 nM and the Vmax (retinol dehydratase [1]; all assays, with carrier protein, n=5) is listed as 490±50 pmoles AR min^-1 enzyme. The Vmax (retinol dehydratase [1]; native retinol dehydratase 0.1 μg/assay, 3H-retinol, representative experiment, non-linear regression) was 530 pmol/mg/min, the “time from the start of activation to entry of the S phase” value (NIH 3T3 cells; [4]) was 16 h and the “activation of growth arrested cells (thymidine incorporation over 24 hours)” value (NIH 3T3 cells) was “activated the cells at least as well as serum”. For the same compound, the “concentrations that activate resting 3T3 cells (dose-response)” value (NIH 3T3 cells) was “submicromolar”, the Kd (retinol dehydratase [3]; n=3, read-out: range of equilibrium dissociation constant (Kd)) was 2 to 15 nM and the Kd (retinol dehydratase [3]; recombinant enzyme 0.5-1 μM, no cofactor, to be considered an upper limit, read-out: equilibrium dissociation constant (Kd)) was 9 nM.

With [N-]=[N+]=[N-] [sodium azide] the “inhibition of cellular production of AR compared to controls” value (Sf-21 cells; 0.1% sodium azide treatment) was 96%.

For “Insulin: bovine insulin, 5 μg/ml in ITLB medium”, the “activation of resting 3T3 cells” value (NIH 3T3 cells; insulin 5 μg/ml in the defined medium, alone) was “did not activate”.

For PDGF, the “activation of growth arrested cells (thymidine incorporation over 24 hours)” value (NIH 3T3 cells) was “had no effect”, the “entry of treated cells into the S phase” value (NIH 3T3 cells) was “did not enter the S phase” and the “activation of resting cells” value (NIH 3T3 cells; ≤1000 ng/ml) was “unable to activate”.
